The test deals with T1, PD brain-derived a-syn aggregates (Homo sapiens, UniProt P37840).
T1 construct: from tissue; host or cells: human PD donor brain, sarkosyl-insoluble 100,000 x g pellet
Nature of the test: Micro-radiobinding competition assay against Example-1 [^3H-1] (Table 8). The format is binding. Conditions: for Competition at 100 nM (%): 100 nM non-radiolabelled example compound vs Example-1 [^3H-1] ligand; for Competition at 100 nM (%) / Competition at 1 μM (%): human PD brain-derived a-syn aggregates; for Competition at 1 μM (%): 1 μM non-radiolabelled example compound vs Example-1 [^3H-1] ligand; for Ki: mean of Ki values in independent experiments using PD brain-derived homogenates from two different donors. The protocol: PD brain-derived a-syn aggregates were spotted onto microarray slides. The slides were incubated with the Example-1 [^3H-1] at 6 nM or 20 nM and the example compounds (non-radiolabelled) at 1 μM and 100 nM. In some cases, the non-radiolabelled example compounds were further assessed for a range of different concentrations, varying from 0.05 nM to 2 μM. After incubation, slides were washed and scanned by a real-time autoradiography system (BeaQuant, ai4R). Quantification of the signal was performed by using the Beamage image analysis software (ai4R). […] All measurements were performed with at least two technical replicates. For compounds tested in more than one experiment, the mean of the replicates or K; values in independent experiments is reported.
Results: Example compounds were assessed for their potency to compete with the binding of Example-1 [^3H-1] ligand to PD patient brain-derived a-syn aggregates. Results of the micro-radiobinding competition assay for the example compounds tested are shown in Table 8 as: % competition at 1 μM and 100 nM.

Each structure is given as a SMILES string.

The results in this text go back to US12552800B2, “Compounds for diagnosis” (AC IMMUNE SA, priority 2020, dated 2026).

In general, Ki refers to a measure of affinity in units of concentration, obtained from inhibition or displacement.

Consider `COc1ccc(N2Cc3nn(-c4ccc(N5CC[C@@H](F)C5)nc4)cc3C2=O)cn1` [Example 8], for which the “Competition at 100 nM (%)” value is 67% and the “Competition at 1 μM (%)” value turned out to be 91%.
The like results for `COc1ccc(N2Cc3nn(-c4ccc(N5CC[C@H](F)C5)nc4)cc3C2=O)cn1` [Example 9] were, in that order, 69% and 90%.
Turning to `Cc1ccc(N2Cc3nn(-c4ccc(N5CC[C@@H](F)C5)nc4)cc3C2=O)cn1` [Example 10], the “Competition at 100 nM (%)” value is 58%, the “Competition at 1 μM (%)” value stood at 90% and the Ki is 61 nM.
For the compound `Cc1ccc(N2Cc3nn(-c4ccc(N5CC[C@H](F)C5)nc4)cc3C2=O)cn1` [Example 11], the “Competition at 100 nM (%)” value worked out at 50% and the “Competition at 1 μM (%)” value came to 98%.
As for `Cc1ncccc1N1Cc2nn(-c3ccc(N4CC[C@@H](F)C4)nc3)cc2C1=O` [Example 12], the “Competition at 1 μM (%)” value came to 25%.
With `Cc1ncccc1N1Cc2nn(-c3ccc(N4CC[C@H](F)C4)nc3)cc2C1=O` [Example 13], the “Competition at 100 nM (%)” value is given as 4% and the “Competition at 1 μM (%)” value is given as 31%.
The like results for `O=C1c2cn(-c3ccc(N4CC[C@@H](F)C4)nc3)nc2CN1c1cncnc1` [Example 14] were, in that order, 42% and 77%.
In the same order, the values of `O=C1c2cn(-c3ccc(N4CC[C@@H](F)C4)nc3)nc2CN1c1ncccn1` [Example 15] are 61% and 91%.
The like results for `O=C1c2cn(-c3ccc(N4CC[C@H](F)C4)nc3)nc2CN1c1cncnc1` [Example 16] were, in that order, 32% and 70%.
On to `O=C1c2cn(-c3ccc(N4CC[C@H](F)C4)nc3)nc2CN1c1ccccc1` [Example 20], for which the “Competition at 100 nM (%)” value was found to be 48% and the “Competition at 1 μM (%)” value is on record as 90%.
As to `N#Cc1ccc(N2Cc3nn(-c4ccc(N5CC[C@H](F)C5)nc4)cc3C2=O)cc1N` [Example 21], the “Competition at 1 μM (%)” value is 84%.
For the compound `N#Cc1cc(N2Cc3nn(-c4ccc(N5CC[C@H](F)C5)nc4)cc3C2=O)ccc1N` [Example 22], the “Competition at 1 μM (%)” value is 72%.
Same read-out and setting: the value for `N#Cc1cc(N2Cc3nn(-c4ccc(N5CC[C@@H](F)C5)nc4)cc3C2=O)ccc1N` [Example 23] was 81%.
The same measure, in the same setting: the value for `N#Cc1ccc(N2Cc3nn(-c4ccc(N5CC[C@@H](F)C5)nc4)cc3C2=O)cc1N` [Example 24] was 97%.
With `COc1ccc(N2Cc3nn(-c4ccc(N5CC[C@H](F)C5)nc4)cc3C2=O)nc1` [Example 28], the “Competition at 100 nM (%)” value is 89% and the “Competition at 1 μM (%)” value was 99%.
Turning to `N#Cc1ccc(N2Cc3nn(-c4ccc(N5CC[C@H](F)C5)nc4)cc3C2=O)cn1` [Example 29], the “Competition at 100 nM (%)” value was found to be 91%.
On to `COc1ccc(N2Cc3nn(-c4ccc(N5CC[C@H](F)C5)nc4)cc3C2=O)cc1` [Example 30], for which the “Competition at 100 nM (%)” value is 80% and the “Competition at 1 μM (%)” value is listed as 95%.
For `N#Cc1ccc(N2Cc3nn(-c4ccc(N5CC[C@H](F)C5)nc4)cc3C2=O)nc1` [Example 31], the “Competition at 100 nM (%)” value is listed as 86%.
`Cc1ccccc1N1Cc2nn(-c3ccc(N4CC[C@H](F)C4)nc3)cc2C1=O` [Example 32]: the “Competition at 100 nM (%)” value was determined as 16% and the “Competition at 1 μM (%)” value was determined as 25%.
For `N#Cc1ccc(N2Cc3nn(-c4ccc(N5CC[C@@H](F)C5)nc4)cc3C2=O)nc1` [Example 33], the “Competition at 100 nM (%)” value is on record as 75%.
Consider `COc1cccc(N2Cc3nn(-c4ccc(N5CC[C@@H](F)C5)nc4)cc3C2=O)c1` [Example 34], for which the “Competition at 100 nM (%)” value is 80% and the “Competition at 1 μM (%)” value was 89%.
Regarding `Cc1ccc(N2Cc3nn(-c4ccc(N5CC[C@H](F)C5)nc4)cc3C2=O)cc1` [Example 35], the “Competition at 100 nM (%)” value turned out to be 73%.
With `COc1cccc(N2Cc3nn(-c4ccc(N5CC[C@H](F)C5)nc4)cc3C2=O)c1` [Example 36], the “Competition at 100 nM (%)” value turned out to be 74% and the “Competition at 1 μM (%)” value was determined as 91%.
Consider `COc1ccccc1N1Cc2nn(-c3ccc(N4CC[C@H](F)C4)nc3)cc2C1=O` [Example 37], for which the “Competition at 100 nM (%)” value is recorded as 37%.
`Cc1cccc(N2Cc3nn(-c4ccc(N5CC[C@H](F)C5)nc4)cc3C2=O)c1` [Example 38]: the “Competition at 100 nM (%)” value came to 70%.
For `O=C1c2cn(-c3ccc(N4CCCC4)nc3)nc2CN1c1cccnc1F` [Example 39], the “Competition at 100 nM (%)” value worked out at 43% and the “Competition at 1 μM (%)” value came to 66%.
As for `O=C1c2cn(-c3ccc(N4CCCC4)nc3)nc2CN1c1ccnc(F)c1` [Example 41], the “Competition at 100 nM (%)” value amounted to 61% and the “Competition at 1 μM (%)” value came to 93%.
The like results for `O=C1c2cn(-c3ccc(N4CCCC4)nc3)nc2CN1c1nccnc1F` [Example 42] were, in that order, 57% and 89%.
In the same order, the values of `O=C1c2cn(-c3ccc(N4CCC[C@H](F)C4)nc3)nc2CN1c1cccnc1` [Example 43] are 47% and 88%.
As for `Nc1cc(N2Cc3nn(-c4ccc(N5CCCC5)nc4)cc3C2=O)ccc1F` [Example 44], the “Competition at 100 nM (%)” value is 90%.
Turning to `O=C1c2cn(-c3ccc(N4CCOCC4)nc3)nc2CN1c1nccnc1F` [Example 45], the “Competition at 100 nM (%)” value was determined as 78%, the “Competition at 1 μM (%)” value is reported as 92% and the inhibition constant (Ki) was found to be 52 nM.
In the case of `N#Cc1cc(N2Cc3nn(-c4ccc(N5CCCC5)nc4)cc3C2=O)ccc1F` [Example 46], the “Competition at 100 nM (%)” value is 61%.
Same read-out and setting: with `O=C1c2cn(-c3ccc(N4CCCC4)nc3)nc2CN1c1cnccc1F` [Example 47] the figure was 39%.
For `Cl.O=C1c2cn(-c3ccc(N4CCCC4)nc3)nc2CN1c1ccc(F)nc1` [Example 49], the “Competition at 100 nM (%)” value was 48% and the “Competition at 1 μM (%)” value worked out at 84%.
The like results for `O=C1c2cn(-c3ccc(N4CC[C@@H](F)C4)nc3)nc2CN1c1ccccc1` [Example 51] were, in that order, 80% and 100%.
In the same order, the values of `Cc1c2c(nn1-c1ccc(N3CC[C@@H](F)C3)nc1)CN(c1cccnc1)C2=O` [Example 52] are 26% and 29%.
In the same order, the values of `Cc1c2c(nn1-c1ccc(N3CC[C@H](F)C3)nc1)CN(c1cccnc1)C2=O` [Example 53] are 27% and 54%.
For `N#Cc1ccc(N2Cc3nn(-c4ccc(N5CCCC5)nc4)cc3C2=O)cc1F` [Example 55], the “Competition at 100 nM (%)” value is given as 11% and the “Competition at 1 μM (%)” value came out at 38%.
For the compound `N#Cc1ccc(N2Cc3nn(-c4ccc(N5CC[C@@H](F)C5)nc4)cc3C2=O)cc1` [Example 56], the “Competition at 100 nM (%)” value was found to be 93%.
Still for that read-out and setting: with `N#Cc1ccc(N2Cc3nn(-c4ccc(N5CC[C@@H](F)C5)nc4)cc3C2=O)cn1` [Example 57] the figure was 88%.
As to `COc1ccc(N2Cc3nn(-c4ccc(N5CC[C@@H](F)C5)nc4)cc3C2=O)nc1` [Example 58], the “Competition at 100 nM (%)” value stood at 85% and the “Competition at 1 μM (%)” value came to 98%.
As to `N#Cc1ccc(N2Cc3nn(-c4ccc(N5CC[C@H](F)C5)nc4)cc3C2=O)cc1` [Example 59], the “Competition at 100 nM (%)” value is given as 86%.
In the case of `Cc1ccc(N2Cc3nn(-c4ccc(N5CC[C@@H](F)C5)nc4)cc3C2=O)cc1` [Example 60], the “Competition at 100 nM (%)” value was determined as 70% and the “Competition at 1 μM (%)” value amounted to 71%.
On to `Cc1cccc(N2Cc3nn(-c4ccc(N5CC[C@@H](F)C5)nc4)cc3C2=O)c1` [Example 61], for which the “Competition at 100 nM (%)” value was found to be 53% and the “Competition at 1 μM (%)” value came out at 80%.
The like results for `COc1ccccc1N1Cc2nn(-c3ccc(N4CC[C@@H](F)C4)nc3)cc2C1=O` [Example 62] were, in that order, 8% and 27%.
The like results for `O=C1c2cn(-c3ccc(N4CC[C@@H](F)C4)nc3)nc2CN1c1ccc(F)cc1` [Example 63] were, in that order, 79% and 96%.
On to `N#Cc1cccc(N2Cc3nn(-c4ccc(N5CC[C@H](F)C5)nc4)cc3C2=O)c1` [Example 65], for which the “Competition at 100 nM (%)” value is 64%.
`O=C1c2cn(-c3ccc(N4CC[C@@H](F)C4)cn3)nc2CN1c1cccnc1` [Example 66]: the “Competition at 100 nM (%)” value amounted to 72% and the “Competition at 1 μM (%)” value is 92%.
For `N#Cc1cccc(N2Cc3nn(-c4ccc(N5CC[C@@H](F)C5)nc4)cc3C2=O)c1` [Example 67], the “Competition at 100 nM (%)” value is reported as 71%.
Same read-out and setting: with `O=C1c2cn(-c3ccc(N4CC[C@@H](F)C4)nc3)nc2CN1c1cccc(F)c1` [Example 68] the figure was 63%.
Regarding `O=C1c2cn(-c3ccc(N4CC[C@@H](F)C4)nc3)nc2CN1c1ccccc1F` [Example 69], the “Competition at 100 nM (%)” value is listed as 16% and the “Competition at 1 μM (%)” value worked out at 48%.
Take `O=C1c2cn(-c3ccc(N4CC[C@H](F)C4)nc3)nc2CN1c1cccc(F)c1` [Example 70]: the “Competition at 100 nM (%)” value amounted to 65%.
Take `O=C1c2cn(-c3ccc(N4CC[C@H](F)C4)nc3)nc2CN1c1ccccc1F` [Example 71]: the “Competition at 100 nM (%)” value amounted to 18% and the “Competition at 1 μM (%)” value stood at 51%.
